This passage reports Ki results from BindingDB's records for doi:10.1016/j.bmc.2007.06.041 (Seoul National University, 2007).

This test concerns the target Transient receptor potential cation channel subfamily V member 1 (Rattus norvegicus, UniProt O35433). Kind of test: Competition Binding Assay and Inhibition of Ca2+ Uptake Assay. The settings on record: pH 7.4; 37 °C. The procedure:
Binding assay mixtures were set up and contained [3H] RTX, various concentrations of competing ligands, and rVR1-transfected CHO cells. Nonspecific binding was determined in the presence of 100 nM nonradioactive RTX. After the binding reaction, membrane-bound RTX was separated from the free by centrifugation, and the radioactivity was determined by scintillation counting. Equilibrium binding parameters (Ki, Bmax, and cooperativity) were determined by fitting the Hill equation to the measured values with the aid of the program Origin 6.0.

Chain of Transient receptor potential cation channel subfamily V member 1 (O35433 whole entry): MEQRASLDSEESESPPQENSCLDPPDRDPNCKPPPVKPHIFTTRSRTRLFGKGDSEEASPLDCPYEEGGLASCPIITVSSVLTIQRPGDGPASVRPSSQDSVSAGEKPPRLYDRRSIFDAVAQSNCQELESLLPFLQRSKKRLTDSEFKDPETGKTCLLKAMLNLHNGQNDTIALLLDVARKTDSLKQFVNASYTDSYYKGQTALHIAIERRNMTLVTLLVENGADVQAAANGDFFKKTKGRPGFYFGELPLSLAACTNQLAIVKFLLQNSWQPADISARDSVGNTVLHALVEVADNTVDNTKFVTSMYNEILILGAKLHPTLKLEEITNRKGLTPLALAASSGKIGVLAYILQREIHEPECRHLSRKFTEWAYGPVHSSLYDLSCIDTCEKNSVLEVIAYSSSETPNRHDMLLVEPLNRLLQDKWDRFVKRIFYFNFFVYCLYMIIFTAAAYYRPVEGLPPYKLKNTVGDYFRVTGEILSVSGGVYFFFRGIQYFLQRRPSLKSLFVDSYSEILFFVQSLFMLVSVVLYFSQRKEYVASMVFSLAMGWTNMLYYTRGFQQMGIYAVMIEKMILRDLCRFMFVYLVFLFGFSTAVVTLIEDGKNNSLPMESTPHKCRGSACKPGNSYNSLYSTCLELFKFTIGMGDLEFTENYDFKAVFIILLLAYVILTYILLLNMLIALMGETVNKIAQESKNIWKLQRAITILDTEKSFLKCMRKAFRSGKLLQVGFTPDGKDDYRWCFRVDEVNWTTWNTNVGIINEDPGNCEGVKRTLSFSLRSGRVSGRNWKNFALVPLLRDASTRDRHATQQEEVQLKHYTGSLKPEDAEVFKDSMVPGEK

In turn, `COc1cc(C2(NC(=S)NCc3ccc(C(C)(C)C)cc3)CC2)ccc1NS(C)(=O)=O` [1-[(4-tert-butylphenyl)methyl]-3-[1-(4-methanesulfonamido-3-methoxyphenyl)cyclopropyl]thiourea] yielded an inhibitory constant (Ki) of 243 nM.

The compound `CC(C)(C)c1ccc(CNC(=S)NC2(c3ccc(NS(C)(=O)=O)cc3)CC2)cc1` [1-[(4-tert-butylphenyl)methyl]-3-[1-(4-methanesulfonamidophenyl)cyclopropyl]thiourea] gave a Ki of 60 nM.

As for `CC(C)C(NC(=S)NCc1ccc(C(C)(C)C)cc1)c1ccc(NS(C)(=O)=O)c(F)c1` (configuration not stated) [3-[(4-tert-butylphenyl)methyl]-1-[1-(3-fluoro-4-methanesulfonamidophenyl)-2-methylpropyl]thiourea], the Ki was found to be 223 nM.

In turn, `CC(C)(C)c1ccc(CNC(=S)NC(Cc2ccccc2)c2ccc(NS(C)(=O)=O)c(F)c2)cc1` (configuration not stated) [3-[(4-tert-butylphenyl)methyl]-1-[1-(3-fluoro-4-methanesulfonamidophenyl)-2-phenylethyl]thiourea] returned a Ki of 700 nM.

`CC(NC(=S)NCc1ccc(C(C)(C)C)cc1)c1ccc(NS(C)(=O)=O)c(F)c1` (configuration not stated) [3-[(4-tert-butylphenyl)methyl]-1-[1-(3-fluoro-4-methanesulfonamidophenyl)ethyl]thiourea] returned a Ki of 9.2 nM.

In turn, `CCC(NC(=S)NCc1ccc(C(C)(C)C)cc1)c1ccc(NS(C)(=O)=O)c(F)c1` (configuration not stated) [3-[(4-tert-butylphenyl)methyl]-1-[1-(3-fluoro-4-methanesulfonamidophenyl)propyl]thiourea] gave a Ki of 54 nM.

Regarding `COc1cc(C(C)NC(=S)NCc2ccc(C(C)(C)C)cc2)ccc1NS(C)(=O)=O` (configuration not stated) [3-[(4-tert-butylphenyl)methyl]-1-[1-(4-methanesulfonamido-3-methoxyphenyl)ethyl]thiourea], the Ki came to 28.6 nM.

With `CC(NC(=S)NCc1ccc(C(C)(C)C)cc1)c1ccc(NS(C)(=O)=O)cc1` (configuration not stated) [3-[(4-tert-butylphenyl)methyl]-1-[1-(4-methanesulfonamidophenyl)ethyl]thiourea], affinity was put at a Ki of 14.7 nM.

As for `CC(C)(C)c1ccc(CNC(=S)NC(C)(C)c2ccc(NS(C)(=O)=O)c(F)c2)cc1` [3-[(4-tert-butylphenyl)methyl]-1-[2-(3-fluoro-4-methanesulfonamidophenyl)propan-2-yl]thiourea], the affinity, expressed as Ki, was 980 nM.

With `COc1cc(C(C)(C)NC(=S)NCc2ccc(C(C)(C)C)cc2)ccc1NS(C)(=O)=O` [3-[(4-tert-butylphenyl)methyl]-1-[2-(4-methanesulfonamido-3-methoxyphenyl)propan-2-yl]thiourea], the affinity, expressed as Ki, was 663 nM.

Consider `CC(C)(C)c1ccc(CNC(=S)NC(C)(C)c2ccc(NS(C)(=O)=O)cc2)cc1` [3-[(4-tert-butylphenyl)methyl]-1-[2-(4-methanesulfonamidophenyl)propan-2-yl]thiourea], for which the Ki is 1800 nM.

`C[C@@H](NC(=S)NCc1ccc(C(C)(C)C)cc1)c1ccc(NS(C)(=O)=O)c(F)c1` [3-[(4-tert-butylphenyl)methyl]-1-[(1R)-1-(3-fluoro-4-methanesulfonamidophenyl)ethyl]thiourea] registered a Ki of 37 nM.

`C[C@@H](NC(=S)NCc1ccc(C(C)(C)C)cc1)c1ccc(NS(C)(=O)=O)cc1` [3-[(4-tert-butylphenyl)methyl]-1-[(1R)-1-(4-methanesulfonamidophenyl)ethyl]thiourea] came in with a Ki of 4.5 nM.

`C[C@H](NC(=S)NCc1ccc(C(C)(C)C)cc1)c1ccc(NS(C)(=O)=O)c(F)c1` [3-[(4-tert-butylphenyl)methyl]-1-[(1S)-1-(3-fluoro-4-methanesulfonamidophenyl)ethyl]thiourea] registered a Ki of 2670 nM.

Compound `CC(C)(C)c1ccc(CNC(=S)NC(c2ccccc2)c2ccc(NS(C)(=O)=O)c(F)c2)cc1` (configuration not stated) [3-[(4-tert-butylphenyl)methyl]-1-[(3-fluoro-4-methanesulfonamidophenyl)(phenyl)methyl]thiourea] had a Ki of 860 nM.

As for `CC(C)(C)c1ccc(CNC(=S)NCc2ccc(NS(C)(=O)=O)c(F)c2)cc1` [JYL1421], the affinity corresponds to a Ki of 9.2 nM.

`Oc1cc2c(cc1O)CN(C(=S)NCCc1ccc(Cl)cc1)CCC2` [N-[2-(4-chlorophenyl)ethyl]-7,8-dihydroxy-2,3,4,5-tetrahydro-1H-2-benzazepine-2-carbothioamide] displayed a Ki of 520 nM.
